Data on one compound can be found in article PMC5482477, “Overexpression and characterization of two types of nitrile hydratases from Rhodococcus rhodochrous J1” (PLoS ONE, 2017).

In this test the target is T1, H-NHase (NhhBA) (Rhodococcus rhodochrous, UniProt P21219+P21220).
T1 construct: gene nhhA; alpha10beta10, 504 kDa by gel filtration; cobalt-containing
T1 sequence (P21219 2-203): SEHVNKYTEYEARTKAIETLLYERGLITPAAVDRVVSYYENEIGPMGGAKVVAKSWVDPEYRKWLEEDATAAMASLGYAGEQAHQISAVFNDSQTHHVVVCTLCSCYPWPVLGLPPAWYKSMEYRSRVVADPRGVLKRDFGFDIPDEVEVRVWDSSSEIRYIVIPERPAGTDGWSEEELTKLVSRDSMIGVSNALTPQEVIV
T1 sequence (P21220 1-229): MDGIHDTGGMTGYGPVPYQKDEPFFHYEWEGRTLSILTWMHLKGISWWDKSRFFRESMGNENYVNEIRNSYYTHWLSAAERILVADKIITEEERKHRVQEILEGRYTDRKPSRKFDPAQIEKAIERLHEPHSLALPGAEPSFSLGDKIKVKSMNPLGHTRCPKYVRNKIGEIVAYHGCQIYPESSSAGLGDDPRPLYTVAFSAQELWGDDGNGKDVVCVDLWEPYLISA
Put plainly: residual activity after […] min treatment, HPLC. It counts as biochemical.

SMILES strings stand for the structures.

In the case of `NC(=O)c1cccnc1` [nicotinamide], the remaining activity (usually the share of the control activity or signal that is left under treatment) at 1.5 M amounted to 60%.
